Measured values published in patent US20100279990A1, “ANTIPROLIFERATIVE COMPOUNDS, COMPOSITIONS AND METHODS OF USE” (RAMOT AT TEL-AVIV UNIVERSITY LTD., priority 2006, published 2010).
Like-named read-outs stand apart in the source and are kept apart here.

Key:
[1] = tested on: MEXF 394NL; experiment: Monolayer Assay, PI: MEXF 394NL (Melanoma); type: cell-based, human
Source text: (§1) This example illustrates cell proliferation data in the form of IC50, IC70 and IC90 values obtained by exposure of human cancer cell-lines to compound (Ia). […].

[2] = tested on: HNXF 536L; experiment: Monolayer Assay, PI: HNXF 536L; type: cell-based, human
Source text: as §1

[3] = tested on: CEM/C1 human leukemia cells; experiment: Cell proliferation of CEM/C1 human leukemia cells, 3H thymidine incorporation; type: cell-based
Experimental: […] Cells, 10,000/well, were harvested and the incorporated radioactivity was determined by liquid scintillation in a beta counter.

[4] = tested on: LXF H460; experiment: Monolayer Assay, PI: LXF H460 (Lung); type: cell-based, human
Source text: as §1

[5] = tested on: CXF HT29; experiment: Monolayer Assay, PI: CXF HT29 (Colorectal); type: cell-based, human
Source text: as §1

[6] = tested on: LS1034 human colon MDR carcinoma cells; experiment: Viability of LS1034 human colon MDR carcinoma cells (FIG. 7B); type: cell-based
Source text: This example illustrates cell viability obtained by separately administering different concentrations of compound (Ia), sertraline, doxorubicin, cisplatin, fluorouracil (5-FU), methotrexate (MTX), and vincristin to LS1034 human colon MDR carcinoma cells. The results are depicted in FIG. 7B.

[7] = tested on: LXF 526L; experiment: Monolayer Assay, PI: LXF 526L (Lung); type: cell-based, human
Source text: as §1

[8] = tested on: MAXF 401NL; experiment: Monolayer Assay, PI: MAXF 401NL (Breast); type: cell-based, human
Source text: as §1

[9] = tested on: BCL2 expression in human Jurkat lymphoma cells; experiment: Western blot of BCL2 expression in human Jurkat lymphoma cell-line; type: cell-based; settings: FIG. 10
Source text: This example illustrates western blot data corresponding to BCL2 expression in a human Jurkat lymphoma cell-line treated with different concentrations of compound (Ia). The results are depicted in FIG. 10.

[10] = tested on: OVXF 899L; experiment: Monolayer Assay, PI: OVXF 899L (Ovarian Cancer); type: cell-based, human
Source text: as §1

[11] = tested on: PXF 1752L; experiment: Monolayer Assay, PI: PXF 1752L (Pleuramesothelioma); type: cell-based, human
Source text: as §1

[12] = tested on: IFN γ secretion in Con-A activated naive mouse splenocytes; experiment: IFN γ secretion in Con-A activated naive mouse splenocytes; type: cell-based; settings: FIG. 3B
Source text: This example illustrates IFN y secretion data obtained by separately administering different concentrations of compound (Ia), paroxetine, citalopram, and ecitalopram to Con-A activated naive mouse splenocytes. The results are depicted in FIG. 3B.

[13] = tested on: MEXF 514L; experiment: Monolayer Assay, PI: MEXF 514L (Melanoma); type: cell-based, human
Source text: as §1

[14] = tested on: human Jurkat lymphoma cells; experiment: Viability of human Jurkat lymphoma cells, alamar blue staining; type: cell-based; settings: for IC50: Homo sapiens, 48 hr, alamar blue
Experimental: This example illustrates cell viability data derived from the incubation of a human. […] The results are depicted in FIGS. 1A, 1B, and 1C. […] See Nociari et al., J. Immunol. […] Each point represents the mean+/−SE of 4 determinations.

[15] = tested on: PAXF 1657L; experiment: Monolayer Assay, PI: PAXF 1657L; type: cell-based, human
Source text: as §1

CN[C@H]1CC[C@@H](c2ccc(Cl)c(Cl)c2)c2ccc(C#CCCCO)cc21 [compound (Ia), (1S-cis)-4-(3,4-dichlorophenyl)-7-(5-hydroxy-1-pentyn-1-yl)-1,2,3,4-tetrahydro-N-methyl-1-naphthalenamine hydroiodide]
Test/Control (%) ([1]; 2.3 μg/ml): 59% | Test/Control activity class ([1]; 2.3 μg/ml): − (− (T/C = 50)) | Test/Control (%) ([1]; 7.5 μg/ml): 3% | Test/Control activity class ([1]; 7.5 μg/ml): +++ (+++ (T/C < 10)) | Test/Control (%) ([1]; 23. μg/ml): 2% | Test/Control activity class ([1]; 23. μg/ml): +++ (+++ (T/C < 10)) | Test/Control (%) ([1]; 75. μg/ml): 2% | Test/Control activity class ([1]; 75. μg/ml): +++ (+++ (T/C < 10)) | Test/Control (%) ([1]; .75 μg/ml): 99% | Test/Control activity class ([1]; .75 μg/ml): − (− (T/C = 50)) | Test/Control (%) ([2]; 2.3 μg/ml): 102% | Test/Control activity class ([2]; 2.3 μg/ml): − (− (T/C = 50)) | Test/Control (%) ([2]; 7.5 μg/ml): 97% | Test/Control activity class ([2]; 7.5 μg/ml): − (− (T/C = 50)) | Test/Control (%) ([2]; 23. μg/ml): 4% | Test/Control activity class ([2]; 23. μg/ml): +++ (+++ (T/C < 10)) | Test/Control (%) ([2]; 75. μg/ml): 3% | Test/Control activity class ([2]; 75. μg/ml): +++ (+++ (T/C < 10)) | Test/Control (%) ([2]; .75 μg/ml): 112% | Test/Control activity class ([2]; .75 μg/ml): − (− (T/C = 50)) | effect compared to sertraline and paroxetine [3]: significantly higher effects compared to sertraline and paroxetine | cell proliferation ([3]; 1 μM, 3H thymidine incorporation 24 hours): 38.8 % of controls | inhibition at 10 µM ([3]; Homo sapiens, 10 μM, 3H thymidine incorporation): ~95% | effect on cell proliferation ([3]; already evident at 1 μM): dose dependent decrease in cell proliferation | Test/Control (%) ([4]; 2.3 μg/ml): 95% | Test/Control activity class ([4]; 2.3 μg/ml): − (− (T/C = 50)) | Test/Control (%) ([4]; 7.5 μg/ml): 2% | Test/Control activity class ([4]; 7.5 μg/ml): +++ (+++ (T/C < 10)) | Test/Control (%) ([4]; 23. μg/ml): 1% | Test/Control activity class ([4]; 23. μg/ml): +++ (+++ (T/C < 10)) | Test/Control (%) ([4]; 75. μg/ml): 1% | Test/Control activity class ([4]; 75. μg/ml): +++ (+++ (T/C < 10)) | Test/Control (%) ([4]; .75 μg/ml): 101% | Test/Control activity class ([4]; .75 μg/ml): − (− (T/C = 50)) | Test/Control (%) ([5]; 2.3 μg/ml): 100% | Test/Control activity class ([5]; 2.3 μg/ml): − (− (T/C = 50)) | Test/Control (%) ([5]; 7.5 μg/ml): 3% | Test/Control activity class ([5]; 7.5 μg/ml): +++ (+++ (T/C < 10)) | Test/Control (%) ([5]; 23. μg/ml): 1% | Test/Control activity class ([5]; 23. μg/ml): +++ (+++ (T/C < 10)) | Test/Control (%) ([5]; 75. μg/ml): 1% | Test/Control activity class ([5]; 75. μg/ml): +++ (+++ (T/C < 10)) | Test/Control (%) ([5]; .75 μg/ml): 99% | Test/Control activity class ([5]; .75 μg/ml): − (− (T/C = 50)) | effect on resistant cancer cells [6]: has the ability to suppress resistant cancer cells | Test/Control (%) ([7]; 2.3 μg/ml): 81% | Test/Control activity class ([7]; 2.3 μg/ml): − (− (T/C = 50)) | Test/Control (%) ([7]; 7.5 μg/ml): 6% | Test/Control activity class ([7]; 7.5 μg/ml): +++ (+++ (T/C < 10)) | Test/Control (%) ([7]; 23. μg/ml): 5% | Test/Control activity class ([7]; 23. μg/ml): +++ (+++ (T/C < 10)) | Test/Control (%) ([7]; 75. μg/ml): 4% | Test/Control activity class ([7]; 75. μg/ml): +++ (+++ (T/C < 10)) | Test/Control (%) ([7]; .75 μg/ml): 92% | Test/Control activity class ([7]; .75 μg/ml): − (− (T/C = 50)) | Test/Control (%) ([8]; 2.3 μg/ml): 70% | Test/Control activity class ([8]; 2.3 μg/ml): − (− (T/C = 50)) | Test/Control (%) ([8]; 7.5 μg/ml): 9% | Test/Control activity class ([8]; 7.5 μg/ml): +++ (+++ (T/C < 10)) | Test/Control (%) ([8]; 23. μg/ml): 3% | Test/Control activity class ([8]; 23. μg/ml): +++ (+++ (T/C < 10)) | Test/Control (%) ([8]; 75. μg/ml): 3% | Test/Control activity class ([8]; 75. μg/ml): +++ (+++ (T/C < 10)) | Test/Control (%) ([8]; .75 μg/ml): 103% | Test/Control activity class ([8]; .75 μg/ml): − (− (T/C = 50)) | BCL2 expression [9]: rapid dose dependent decrease in the levels of the protooncogene Bcl2 | Test/Control (%) ([10]; 2.3 μg/ml): 94% | Test/Control activity class ([10]; 2.3 μg/ml): − (− (T/C = 50)) | Test/Control (%) ([10]; 7.5 μg/ml): 10% | Test/Control activity class ([10]; 7.5 μg/ml): ++ (++ (10 <= T/C < 30)) | Test/Control (%) ([10]; 23. μg/ml): 3% | Test/Control activity class ([10]; 23. μg/ml): +++ (+++ (T/C < 10)) | Test/Control (%) ([10]; 75. μg/ml): 4% | Test/Control activity class ([10]; 75. μg/ml): +++ (+++ (T/C < 10)) | Test/Control (%) ([10]; .75 μg/ml): 100% | Test/Control activity class ([10]; .75 μg/ml): − (− (T/C = 50)) | Test/Control (%) ([11]; 2.3 μg/ml): 81% | Test/Control activity class ([11]; 2.3 μg/ml): − (− (T/C = 50)) | Test/Control (%) ([11]; 7.5 μg/ml): 27% | Test/Control activity class ([11]; 7.5 μg/ml): ++ (++ (10 <= T/C < 30)) | Test/Control (%) ([11]; 23. μg/ml): 5% | Test/Control activity class ([11]; 23. μg/ml): +++ (+++ (T/C < 10)) | Test/Control (%) ([11]; 75. μg/ml): 3% | Test/Control activity class ([11]; 75. μg/ml): +++ (+++ (T/C < 10)) | Test/Control (%) ([11]; .75 μg/ml): 99% | Test/Control activity class ([11]; .75 μg/ml): − (− (T/C = 50)) | IFN γ secretion inhibitory activity [12]: greater IFN γ secretion inhibitory activity than paroxetine, citalopram, and ecitalopram | Test/Control (%) ([13]; 2.3 μg/ml): 90% | Test/Control activity class ([13]; 2.3 μg/ml): − (− (T/C = 50)) | Test/Control (%) ([13]; 7.5 μg/ml): 3% | Test/Control activity class ([13]; 7.5 μg/ml): +++ (+++ (T/C < 10)) | Test/Control (%) ([13]; 23. μg/ml): 2% | Test/Control activity class ([13]; 23. μg/ml): +++ (+++ (T/C < 10)) | Test/Control (%) ([13]; 75. μg/ml): 3% | Test/Control activity class ([13]; 75. μg/ml): +++ (+++ (T/C < 10)) | Test/Control (%) ([13]; .75 μg/ml): 108% | Test/Control activity class ([13]; .75 μg/ml): − (− (T/C = 50)) | IC50 ([14]; FIG. 1A, read-out: IC50, anti-proliferative activity): 12.5 µM | IC50 ([14]; FIG. 1B, read-out: IC50, decrease in cell viability): 16.2 µM | potency compared with sertraline ([14]; lower concentrations (1-10 μM), FIG. 1B): higher potency than sertraline | Test/Control (%) ([15]; 2.3 μg/ml): 92% | Test/Control activity class ([15]; 2.3 μg/ml): − (− (T/C = 50)) | Test/Control (%) ([15]; 7.5 μg/ml): 40% | Test/Control activity class ([15]; 7.5 μg/ml): + (+ (30 <= T/C < 50)) | Test/Control (%) ([15]; 23. μg/ml): 6% | Test/Control activity class ([15]; 23. μg/ml): +++ (+++ (T/C < 10)) | Test/Control (%) ([15]; 75. μg/ml): 5% | Test/Control activity class ([15]; 75. μg/ml): +++ (+++ (T/C < 10)) | Test/Control (%) ([15]; .75 μg/ml): 96% | Test/Control activity class ([15]; .75 μg/ml): − (− (T/C = 50))
